Data from PubChem BioAssay (NCI).
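Exposure lasted 48 hours, with cells grown in 96-well plates and compounds tested at five concentrations. TGI: total growth inhibition.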

What was measured:
Experiment in all cases: NCI anticancer screen, dose series, 48 h
[1] = test system: 786-0 renal
[2] = test system: A498 renal
[3] = test system: A549 NSCLC
[4] = test system: ACHN renal
[5] = test system: BT-549 breast
[6] = test system: CAKI-1 renal
[7] = test system: CCRF-CEM leukemia
[8] = test system: COLO 205 colon
[9] = test system: DU-145 prostate
[10] = test system: EKVX NSCLC
[11] = test system: HCC-2998 colon
[12] = test system: HCT-116 colon
[13] = test system: HCT-15 colon
[14] = test system: HL-60(TB) leukemia
[15] = test system: HOP-62 NSCLC
[16] = test system: HOP-92 NSCLC
[17] = test system: HS 578T breast
[18] = test system: HT29 colon
[19] = test system: IGROV1 ovarian
[20] = test system: K-562 leukemia
[21] = test system: KM12 colon
[22] = test system: LOX IMVI melanoma
[23] = test system: M14 melanoma
[24] = test system: MALME-3M melanoma
[25] = test system: MCF7 breast
[26] = test system: MDA-MB-231 breast
[27] = test system: MDA-MB-435
[28] = test system: MDA-N
[29] = test system: MOLT-4 leukemia
[30] = test system: NCI-H226 lung
[31] = test system: NCI-H23 lung
[32] = test system: NCI-H460 lung
[33] = test system: NCI-H522 lung
[34] = test system: NCI/ADR-RES ovarian
[35] = test system: OVCAR-3 ovarian
[36] = test system: OVCAR-4 ovarian
[37] = test system: OVCAR-5 ovarian
[38] = test system: OVCAR-8 ovarian
[39] = test system: PC-3 prostate
[40] = test system: RPMI-8226 leukemia
[41] = test system: RXF 393 renal
[42] = test system: SF-268 CNS
[43] = test system: SF-295 CNS
[44] = test system: SF-539 CNS
[45] = test system: SK-MEL-2 melanoma
[46] = test system: SK-MEL-28 melanoma
[47] = test system: SK-MEL-5 melanoma
[48] = test system: SK-OV-3 ovarian
[49] = test system: SN12C renal
[50] = test system: SNB-19 CNS
[51] = test system: SNB-75 CNS
[52] = test system: SR leukemia
[53] = test system: SW-620 colon
[54] = test system: T-47D breast
[55] = test system: TK-10 renal
[56] = test system: U251 CNS
[57] = test system: UACC-62 melanoma
[58] = test system: UO-31 renal
[59] = test system: UACC-257 melanoma

## COP(=O)(OC)/C(=C/c1cn(C(c2ccccc2)(c2ccccc2)c2ccccc2)cn1)NC=O
[1]
  TGI: > 100 µM
[2]
  TGI: 32 µM
[3]
  TGI: > 100 µM
[4]
  TGI: 24.6 µM
[5]
  TGI: 30.6 µM
[6]
  TGI: 62.3 µM
[7]
  TGI: > 100 µM
[8]
  TGI: 32.9 µM
[9]
  TGI: > 100 µM
[10]
  TGI: 56.9 µM
[11]
  TGI: 33.3 µM
[12]
  TGI: 32.8 µM
[13]
  TGI: 99.4 µM
[14]
  TGI: > 100 µM
[15]
  TGI: 35.9 µM
[16]
  TGI: 68 µM
[17]
  TGI: 43.2 µM
[18]
  TGI: 33.8 µM
[19]
  TGI: 44.1 µM
[20]
  TGI: > 100 µM
[21]
  TGI: > 100 µM
[22]
  TGI: 32.5 µM
[23]
  TGI: 34.4 µM
[24]
  TGI: 38.5 µM
[25]
  TGI: 33.7 µM
[26]
  TGI: 33.5 µM
[27]
  TGI: 40.1 µM
[28]
  TGI: 51.4 µM
[29]
  TGI: > 100 µM
[30]
  TGI: 98.9 µM
[31]
  TGI: 41.2 µM
[32]
  TGI: 34.9 µM
[33]
  TGI: 41.2 µM
[34]
  TGI: > 100 µM
[35]
  TGI: 30.2 µM
[36]
  TGI: 51.9 µM
[37]
  TGI: 38.2 µM
[38]
  TGI: 60.4 µM
[39]
  TGI: > 100 µM
[40]
  TGI: > 100 µM
[41]
  TGI: 35.1 µM
[42]
  TGI: 33.1 µM
[43]
  TGI: 30.5 µM
[44]
  TGI: 28.3 µM
[45]
  TGI: 34.4 µM
[46]
  TGI: 93.6 µM
[47]
  TGI: 27.5 µM
[48]
  TGI: 90.8 µM
[49]
  TGI: 46.4 µM
[50]
  TGI: > 100 µM
[51]
  TGI: 23.3 µM
[52]
  TGI: > 100 µM
[53]
  TGI: 78.1 µM
[54]
  TGI: > 100 µM
[55]
  TGI: 46.3 µM
[56]
  TGI: 35.4 µM
[57]
  TGI: 41.3 µM
[58]
  TGI: > 100 µM

## C[N+]1(CCC[N+]2(C)CC3C4C=CC(CC4)C3C2)CCOCC1 (stereo unspecified)
[1]
  TGI: > 100 µM
[2]
  TGI: > 100 µM
[3]
  TGI: > 100 µM
[4]
  TGI: > 100 µM
[5]
  TGI: > 100 µM
[6]
  TGI: > 100 µM
[7]
  TGI: > 100 µM
[8]
  TGI: > 100 µM
[9]
  TGI: > 100 µM
[10]
  TGI: > 100 µM
[11]
  TGI: > 100 µM
[12]
  TGI: > 100 µM
[13]
  TGI: > 100 µM
[14]
  TGI: > 100 µM
[15]
  TGI: > 100 µM
[16]
  TGI: > 100 µM
[17]
  TGI: > 100 µM
[18]
  TGI: > 100 µM
[19]
  TGI: > 100 µM
[20]
  TGI: > 100 µM
[21]
  TGI: > 100 µM
[22]
  TGI: > 100 µM
[23]
  TGI: > 100 µM
[24]
  TGI: > 100 µM
[25]
  TGI: > 100 µM
[26]
  TGI: > 100 µM
[27]
  TGI: > 100 µM
[28]
  TGI: > 100 µM
[29]
  TGI: > 100 µM
[30]
  TGI: > 100 µM
[31]
  TGI: > 100 µM
[33]
  TGI: > 100 µM
[34]
  TGI: > 100 µM
[35]
  TGI: > 100 µM
[36]
  TGI: > 100 µM
[37]
  TGI: > 100 µM
[38]
  TGI: > 100 µM
[39]
  TGI: > 100 µM
[40]
  TGI: > 100 µM
[41]
  TGI: > 100 µM
[42]
  TGI: > 100 µM
[43]
  TGI: > 100 µM
[44]
  TGI: > 100 µM
[45]
  TGI: > 100 µM
[46]
  TGI: > 100 µM
[47]
  TGI: > 100 µM
[48]
  TGI: > 100 µM
[49]
  TGI: > 100 µM
[50]
  TGI: > 100 µM
[51]
  TGI: > 100 µM
[52]
  TGI: > 100 µM
[53]
  TGI: > 100 µM
[54]
  TGI: > 100 µM
[55]
  TGI: > 100 µM
[56]
  TGI: > 100 µM
[59]
  TGI: > 100 µM
[57]
  TGI: > 100 µM
[58]
  TGI: > 100 µM

## Cn1c(=S)c2[nH]c(SCCN3C(=O)c4ccccc4C3=O)nc2n(C)c1=O
[1]
  TGI: > 100 µM
[2]
  TGI: > 100 µM
[3]
  TGI: > 100 µM
[4]
  TGI: > 100 µM
[5]
  TGI: > 100 µM
[6]
  TGI: > 100 µM
[7]
  TGI: > 100 µM
[8]
  TGI: > 100 µM
[9]
  TGI: > 100 µM
[10]
  TGI: > 100 µM
[12]
  TGI: > 100 µM
[13]
  TGI: > 100 µM
[14]
  TGI: > 100 µM
[15]
  TGI: > 100 µM
[16]
  TGI: > 100 µM
[17]
  TGI: > 100 µM
[18]
  TGI: > 100 µM
[19]
  TGI: > 100 µM
[20]
  TGI: > 100 µM
[21]
  TGI: > 100 µM
[22]
  TGI: > 100 µM
[23]
  TGI: > 100 µM
[24]
  TGI: > 100 µM
[25]
  TGI: > 100 µM
[26]
  TGI: > 100 µM
[27]
  TGI: > 100 µM
[28]
  TGI: > 100 µM
[29]
  TGI: > 100 µM
[30]
  TGI: > 100 µM
[31]
  TGI: > 100 µM
[32]
  TGI: > 100 µM
[33]
  TGI: > 100 µM
[34]
  TGI: > 100 µM
[35]
  TGI: > 100 µM
[36]
  TGI: > 100 µM
[37]
  TGI: > 100 µM
[38]
  TGI: > 100 µM
[39]
  TGI: > 100 µM
[40]
  TGI: > 100 µM
[41]
  TGI: > 100 µM
[42]
  TGI: > 100 µM
[43]
  TGI: > 100 µM
[44]
  TGI: > 100 µM
[45]
  TGI: > 100 µM
[46]
  TGI: > 100 µM
[47]
  TGI: > 100 µM
[48]
  TGI: > 100 µM
[49]
  TGI: > 100 µM
[50]
  TGI: > 100 µM
[51]
  TGI: > 100 µM
[52]
  TGI: > 100 µM
[53]
  TGI: > 100 µM
[54]
  TGI: > 100 µM
[55]
  TGI: > 100 µM
[56]
  TGI: > 100 µM
[59]
  TGI: > 100 µM
[57]
  TGI: > 100 µM
[58]
  TGI: > 100 µM

## COC(=O)/C=C\C(C#N)(C#N)N=Cc1sccc1C
[1]
  TGI: 4.34 µM
[2]
  TGI: 27.9 µM
[3]
  TGI: 29.6 µM
[4]
  TGI: 3.8 µM
[5]
  TGI: 11.1 µM
[6]
  TGI: 3.51 µM
[7]
  TGI: 4.19 µM
[8]
  TGI: 2.53 µM
[9]
  TGI: 13.4 µM
[10]
  TGI: 15 µM
[11]
  TGI: 28.6 µM
[12]
  TGI: 6.69 µM
[13]
  TGI: 4.57 µM
[14]
  TGI: 4.45 µM
[15]
  TGI: 27.8 µM
[16]
  TGI: 3.9 µM
[17]
  TGI: 37.1 µM
[18]
  TGI: 3.31 µM
[19]
  TGI: 29 µM
[20]
  TGI: > 100 µM
[21]
  TGI: 30.3 µM
[22]
  TGI: 3.31 µM
[23]
  TGI: 5.48 µM
[24]
  TGI: 11.3 µM
[25]
  TGI: 3.13 µM
[26]
  TGI: 1.93 µM
[27]
  TGI: 9.84 µM
[28]
  TGI: 15.1 µM
[30]
  TGI: 13.2 µM
[31]
  TGI: 25.3 µM
[32]
  TGI: 31.4 µM
[33]
  TGI: 1.67 µM
[34]
  TGI: 32.7 µM
[35]
  TGI: 16 µM
[36]
  TGI: 10.3 µM
[37]
  TGI: 14.4 µM
[38]
  TGI: 8.69 µM
[39]
  TGI: 19.8 µM
[40]
  TGI: > 24.6 µM
[41]
  TGI: 4.22 µM
[42]
  TGI: 26.1 µM
[43]
  TGI: 35.1 µM
[45]
  TGI: 30.2 µM
[46]
  TGI: 20.1 µM
[47]
  TGI: 4.78 µM
[48]
  TGI: 34.1 µM
[49]
  TGI: 22.3 µM
[50]
  TGI: 33.8 µM
[51]
  TGI: 28.4 µM
[52]
  TGI: > 100 µM
[53]
  TGI: 3.88 µM
[54]
  TGI: 5.92 µM
[55]
  TGI: 4.12 µM
[56]
  TGI: > 40.6 µM
[59]
  TGI: 23.3 µM
[57]
  TGI: 17 µM
[58]
  TGI: 3.51 µM
